Measured values published in ChEMBL document CHEMBL1156571, “ent-kaurane diterpenoids from the liverwort Jungermannia atrobrunnea” (2008).
Values after ≈ are worked out from the molar mass of the structure shown.

The molecules below were run on Candida albicans (assay: Antifungal activity against Candida albicans ATCC 10231 after 24 hrs by broth microdilution method). Conditions: ATCC 10231, 24 h.

MIC | Compound
128 µg/mL (≈ 309 µM) | C=C1C(=O)[C@]23C[C@H]1C(=O)C=C2[C@]1(C)[C@@H](OC(C)=O)CCC(C)(C)[C@H]1[C@@H](OC(C)=O)C3
128 µg/mL (≈ 307 µM) | C=C1C(=O)[C@@]23C[C@H](OC(C)=O)[C@@H]4C(C)(C)CC[C@H](OC(C)=O)[C@@]4(C)C2=C[C@@H](O)[C@@H]1C3
128 µg/mL (≈ 342 µM) | C=C1C(=O)[C@@]23C[C@H](OC(C)=O)[C@@H]4C(C)(C)CC[C@H](O)[C@@]4(C)C2=C[C@@H](O)[C@@H]1C3
128 µg/mL (≈ 307 µM) | CC(=O)O[C@H]1C[C@@]23C[C@@H](C(=O)C=C2[C@]2(C)[C@@H](OC(C)=O)CCC(C)(C)[C@@H]12)[C@@H](C)C3=O
128 µg/mL (≈ 320 µM) | C=C1[C@H]2C[C@@]3(C[C@H](OC(C)=O)[C@@H]4C(C)(C)CCC[C@@]4(C)C3=CC2=O)[C@@H]1OC(C)=O

The remaining lines, values behind:

Compound | MIC
C=C1C(=O)[C@@H]2C3=C(C[C@H](OC(C)=O)[C@@H]4C(C)(C)CC[C@H](OC(C)=O)[C@@]34C)C[C@H]1[C@@H]2O | 128 µg/mL (≈ 307 µM)
C=C1[C@@H]2CC=C3[C@](C2)(C[C@H](O)[C@@H]2C(C)(C)CCC[C@@]32C)[C@@H]1OC(C)=O | 128 µg/mL (≈ 372 µM)
C=C1[C@H]2CC3=C[C@H](OC(C)=O)[C@@H]4C(C)(C)CC[C@H](OC(C)=O)[C@@]4(C)[C@@]34OO[C@]1(O)[C@H]4[C@H]2O [JUNGERMATROBRUNIN A] | 128 µg/mL (≈ 285 µM)
C=C1[C@@H]2CC=C3[C@](C2)(C[C@H](OC(C)=O)[C@@H]2C(C)(C)CCC[C@@]32C)[C@@H]1OC(C)=O | 128 µg/mL (≈ 331 µM)
C=C1C(=O)[C@@H]2C3=C(C[C@H]1[C@@H]2O)C[C@H](O)[C@@H]1C(C)(C)CC[C@H](OC(C)=O)[C@@]31C | 128 µg/mL (≈ 342 µM)
